As to `O=C(SCCC(=O)N1C(C(=O)NO)CSC1c1ccccc1O)c1ccccc1` (centres undefined), the melting point (commonly the temperature, or range, at which the solid turns liquid) lay in the range of 105 to 110 °C.

In turn, `O=C(c1ccccc1)n1c(=O)n(C2CCN(CCCN3c4cccc5cccc(c45)S3(=O)=O)CC2)c2ccccc21` registered a melting point of 133 °C. Under `N#CCCNC(=O)c1cccc(-c2cccc3nn(Cc4ccccc4)cc23)c1` stands 143 to 144 °C; under `COCc1ccc(-c2cn(-c3cc(C(=O)OC)c([N+](=O)[O-])cc3C(F)(F)F)cn2)cc1`, 135 to 137 °C. Under `CCN(CC)C(=O)NC1CC2c3cccc4[nH]c(C(=O)OCc5ccccc5)c(c34)CC2N(C)C1` (centres undefined) stands 226 to 229 °C; under `CC(C)(C)OC(=O)N1CCC(=CC(=O)NCc2ccc(F)c(F)c2)CC1`, 102 to 105 °C; under `COC(=O)CCCC(C)(C)c1ccc(O)c(C(C)=O)c1O`, 94 to 97 °C. Under `O=C1c2ccccc2CCn2cc(SC(F)(F)F)cc21` stands 77 to 78 °C; under `N#Cc1ccc(-c2cn3c(C(F)(F)F)cccc3n2)cc1`, over 300 °C; under `O=C(NCC1CC1)N1CC(Oc2ccc(C(F)(F)F)cc2)C1`, 132 to 133 °C.

In turn, `CN(C)CCNc1ccc(NC(=O)Nc2ccc(Oc3ccccc3)cc2)cc1[N+](=O)[O-]` returned a melting point of 178 to 180 °C. Regarding `CCCOC(=O)C(C)NC(=O)C(CC(=O)O)NC(=O)C1CCCN1` (centres undefined), the melting point fell in the range of 233 to 235 °C.

With `O=C(NC(CO)CO)c1ccccc1-c1ccc(C(F)(F)F)cc1`, the melting point was 141 to 143 °C. With `COc1cc2c(cc1Br)CC=C2CCNC(=O)C(F)(F)F` the figure was 126 to 129 °C. Regarding `CN1CCC(Oc2c(F)cc3c(=O)c(C(=O)O)cn(C4CC4)c3c2F)CC1`, the melting point is 166 to 167 °C. In turn, `C=C(c1ccccc1)c1ccc(N2CCCC2)cc1` showed a melting point of 82.5 to 83 °C.

For `CCOc1ccc(C(=O)CBr)cc1C(=O)OC`, the melting point lay within 147 to 148 °C. Regarding `Cc1nnc(NC(=O)c2sccc2S(=O)(=O)Nc2onc(C)c2Cl)s1`, the melting point fell in the range of 192 to 194 °C. Under `Nc1ccc(C(=O)NCC(=O)O)c(F)c1` stands 190 to 194 °C; under `CNC(=O)c1ccccc1Nc1nc(Nc2ccc3c(c2)C(C)(C)CCC(=O)N3)ncc1Cl`, 295 °C; under `NC(=O)N(O)CCNC(=O)c1cccc(S(=O)(=O)c2ccc(Cl)cc2)c1`, 183 to 186 °C.

The molecule `O=CN1CCc2cc(O)ccc2C1` had a melting point of 186 °C. In turn, `CC1=C(C(=O)OC(C)(C)C)C(c2ccccc2[N+](=O)[O-])C(C(=O)OC(C)(C)C)=C(C)N1` came in with a melting point of 159 to 161 °C.

In turn, `Cc1nn(CCO)c(C)c1S(=O)(=O)c1cc(Cl)cc(Cl)c1` had a melting point of 199 to 200 °C. With `Cc1noc(C=Cc2ccccc2O)n1` the figure was 184 to 186 °C. With `N#Cc1ccc(Cl)cc1NC(=O)c1ccc(Br)cc1` the figure was 151 to 152 °C; with `Nc1ncnc2c1ncn2COCCN1C(=O)c2ccccc2C1=O`, 256 to 258 °C. Under `CNC(=O)C(NC(=O)c1ccc(F)cc1C(F)(F)F)C(O)CSc1cccc(F)c1` (centres undefined) stands 172 °C. In turn, `CCC(=O)Nc1nc(C(Cl)(Cl)Cl)ns1` yielded a melting point of 150 °C.

As for `Cc1nc(N2CCN(Cc3ccc(C(F)(F)F)cc3)C2=O)sc1C(N)=O`, the melting point is 216 to 217 °C. With `Cc1cccc(CN2C(=O)C3(COc4cc5c(cc43)OCCO5)c3ccccc32)n1` (centres undefined) the figure was 183 to 185 °C; with `CCCCN1CCC(CNC(=O)c2ccc(N)n3cc(C(C)C)nc23)CC1`, 138 °C. Under `CC(=O)NCCc1ccc(CCC(=O)O)cc1` stands 132 to 133 °C; under `C(#Cc1ccccn1)CCN1CC=C(c2ccccc2)CC1`, 87.5 to 88.5 °C.

On to `OC(CN1CC=C(c2ccc(Cl)cc2)CC1)c1ccc(Cc2ccc(Cl)cc2)cc1` (centres undefined), for which the melting point fell in the range of 149 to 152 °C.

For the molecule `COC(=O)c1sc2c(c1O)CCCC2`, the melting point was 55 to 58 °C. With `COC(=O)c1cc(C(=O)c2ccc(OC)c3ccccc23)cn1C` the figure was 162 °C.

Take `CCCCCCCCCCSC(=O)CS(=O)(=O)Nc1c(C(C)C)cccc1C(C)C`: the melting point was 57 to 59 °C.

Molecule `Nc1ccc(NCCO)c(C(F)(F)F)c1` showed a melting point of 74 to 75 °C.

`Cc1ccc2c(Br)c(F)cc([N+](=O)[O-])c2n1` displayed a melting point of 135 to 137 °C.

`CCOC(=O)C1=C(C)N=C(N)N(C(=O)OCC)C1c1cccc([N+](=O)[O-])c1` (centres undefined): the melting point was 166 to 168 °C. Under `Nc1ccc(C(=O)N2CCCCc3sccc32)cc1` stands 168 to 172 °C; under `N#Cc1ncn2c(C(F)(F)F)cc(-c3ccc(OCC(F)(F)F)c(C(F)(F)F)c3)nc12`, 189 °C; under `CC1=C(C(=C2SCSCS2)c2ccc(C)cc2)CN(C)O1`, 89 to 90 °C. Under `O=C(O)c1ccc(CCOCCCCCCBr)cc1` stands 85 to 87.5 °C; under `CCc1c2nc(-c3cc(S(C)(=O)=O)ccc3OCC(C)C)[nH]c(=O)c2nn1C1CCNCC1`, 263 to 265 °C. `CN1CC(Cn2ccnc2-c2ccccc2)CC2c3cccc4[nH]cc(c34)CC21` (centres undefined) displayed a melting point of 193 to 195 °C. Under `CCOC(=O)C1=C(C(=O)OCC)C(c2cccc3ccccc23)C(C(=O)OCC)=C(C)N1` (centres undefined) stands 112 °C; under `COc1nc2ccc(Cl)cc2c(-c2ccccc2Cl)c1C(=O)O`, 188 to 190 °C; under `COC(=O)c1ccc(Cl)c(Cl)c1NS(C)(=O)=O`, 100 to 102 °C. With `Cc1cccc(NC(=O)NC(CC(=O)O)C(=O)N(CC(=O)OC(C)(C)C)c2ccccc2)c1` (racemic) the figure was 198 °C; with `COc1ccc2c(c1)C(=O)C(O)=C([N+](=O)[O-])C2=O`, 152 to 155 °C. With `COC(=O)c1ccc2cc(-c3ccc(OC)c(C45CC6CC(CC(C6)C4)C5)c3)ccc2c1` the figure was 221 to 227 °C; with `Cc1oc(-c2ccccc2)nc1COc1ccc(COc2cccc(CCC(=O)O)c2)cc1`, 157 to 158 °C; with `O=C/C=C/c1csc(Nc2ccccc2)n1`, 142 to 143 °C. `COc1ccc(N2CCN(c3ccc(-n4c(C)n[nH]c4=O)cn3)CC2)cc1` yielded a melting point of 251 to 252 °C. `N#Cc1cc(C(F)(F)F)n(Cc2ccccc2)c1-c1ccc(Cl)cc1` registered a melting point of 104 to 106 °C.

Molecule `CN(C)CCCOc1ccc2sc(C(=O)Nc3ccccc3N)cc2c1` came in with a melting point of 164 to 167 °C. In turn, `O=CNC1=NN(c2cccc(F)c2)C(c2ccc(Cl)cc2)C1` (centres undefined) registered a melting point of 128 to 130 °C. Under `N#CCCNC(=O)c1cccc(-c2ccc3c(c2)N(Cc2cccc(Cl)c2Cl)CC3)c1` stands 160 to 161 °C.

`COC(=O)N(C)CCCCC(=O)OC[C@@H]1CC(c2ccc(-c3ccc(N4C[C@H](Cn5ccnn5)OC4=O)cc3F)cn2)=NO1` came in with a melting point of 82 °C. Under `C=CCOC(=O)Nc1ccc(N2CCN(N3C=NN(CC(C)(O)c4ccc(Cl)cc4Cl)C3)CC2)cc1` (centres undefined) stands 177 to 179 °C; under `CN1C(=O)CCC2(C)C3CCC4(C)C(Oc5ccc([N+](=O)[O-])cc5)CCC4C3CCC12` (centres undefined), 183 to 184 °C. `O=C(O)Cc1ccc(NCCNC(=O)C2Cc3ccccc3N2S(=O)(=O)c2ccc(-c3cc(C(F)(F)F)ccc3Cl)cc2)cc1` (centres undefined) yielded a melting point of 110 to 118 °C. Take `CCc1cc(O)cc(C)c1N`: the melting point is 167 to 170 °C. With `O=C(O)c1cc2cc(F)c(F)cc2nc1Cl`, the melting point came to 232 °C.

`CC(=O)c1sccc1S(=O)(=O)N(C)c1cccc2cc(-c3nccs3)[nH]c12` registered a melting point of 156 °C. In turn, `CCN(CC)c1ccc(/C=C/C(=O)CC(=O)/C=C/c2ccc(O)c(OC)c2)c(O)c1` came in with a melting point of 89 to 92 °C.

`COC1=CCC(N)(O)C=C1` (centres undefined) had a melting point of 138 to 140 °C.

`Clc1ccc(-c2nc(COc3ccc(CCCn4ccnc4)cc3)co2)s1` gave a melting point of 77 to 78 °C. Under `CN(C=C(C#N)C#N)c1ccc(O)cc1` stands 187 to 189 °C; under `COc1cn(C)c(=O)c(N)n1`, 166 to 167 °C; under `Cc1c(NC(=O)c2ccc(-c3ccccc3F)cc2)ccc2cc(CN3CCCC3)cnc12`, 133 to 135 °C. With `Oc1ccc2c(c1O)Cc1cccc3c1C2CNC3` (centres undefined) the figure was 175 to 176 °C; with `COc1ccc(OC)c2c1C(=O)OC2=O`, 265 to 268 °C. Under `c1ccc(COc2ccc(OCC3CO3)cc2)cc1` (centres undefined) stands 68 °C. On to `CC(=O)Nc1cccc(OCc2ccccc2)c1CCOC(C)=O`, for which the melting point was in the range of 118 to 119 °C. `Oc1ccccc1-c1nccs1` yielded a melting point of 215 °C. Under `CC(C)(C)c1cc(NC(=O)NCc2ccc([N+](=O)[O-])cc2)cc(C(C)(C)C)c1O` stands 240 to 241 °C. With `Cc1[nH]c(=O)n(C2CCCCC2)c1-c1ccc(OCc2ccccc2)cc1`, the melting point is 262 °C.

The molecule `CC(=O)c1ccc(OCCCN2CCC(c3noc4cc(F)ccc34)CC2)c(O)c1` came in with a melting point of 122 to 124 °C. For `O=c1nc(-c2ccccn2)sc2cccc(F)c12`, the melting point lay in the range of 256 to 257 °C.

`CCOC(=O)c1c(-c2ccc(F)cc2)nc(-c2ccccc2)nc1C(C)C` came in with a melting point of 97 to 99 °C.

On to `Cc1cc(CN2CCC(N(C)S(=O)(=O)c3ccc(Nc4nccc(Nc5ccc(F)c(C)c5)n4)cc3)CC2)[nH]n1`, for which the melting point turned out to be 130 °C. Under `CCCCCCCCCCCCOC(=O)Cc1nc(-c2ccc(Cl)cc2)oc1-c1ccco1` stands 69.5 to 71 °C; under `CC(=O)Nc1ccc(-c2cc(-c3nc4ccccc4c(=O)n3-c3ccccc3)sc2N2CCOCC2)cc1`, over 275 °C; under `Cc1cc2ncccn2n1`, 54 to 57 °C. Under `CCCCCCCCCCOc1ccc(C(=O)c2cccc(C(=O)O)c2)cc1Cc1nnn[nH]1` stands 147 to 150 °C. Under `CC(=O)NC(=O)c1cc([N+](=O)[O-])cnc1C(Br)Br` stands 168 °C.

Values taken from a melting point compilation (Tetko et al.; mined from patent text by program, amines drawn as free bases though some values may be those of a salt).
